pIC50: −log10 of the molar value.
How the values were obtained:
Thromboxane-A synthase = biological target: T1, Thromboxane-A synthase (Homo sapiens, UniProt P24557); test: biochemical; type: tissue-based, Platelet; settings: platelet;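 note: enzyme inhibition assay with PGH2 supplied as substrate; in other assays of this panel Not Active means under 50% inhibition at 10 µM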
T1 sequence (P24557 whole entry): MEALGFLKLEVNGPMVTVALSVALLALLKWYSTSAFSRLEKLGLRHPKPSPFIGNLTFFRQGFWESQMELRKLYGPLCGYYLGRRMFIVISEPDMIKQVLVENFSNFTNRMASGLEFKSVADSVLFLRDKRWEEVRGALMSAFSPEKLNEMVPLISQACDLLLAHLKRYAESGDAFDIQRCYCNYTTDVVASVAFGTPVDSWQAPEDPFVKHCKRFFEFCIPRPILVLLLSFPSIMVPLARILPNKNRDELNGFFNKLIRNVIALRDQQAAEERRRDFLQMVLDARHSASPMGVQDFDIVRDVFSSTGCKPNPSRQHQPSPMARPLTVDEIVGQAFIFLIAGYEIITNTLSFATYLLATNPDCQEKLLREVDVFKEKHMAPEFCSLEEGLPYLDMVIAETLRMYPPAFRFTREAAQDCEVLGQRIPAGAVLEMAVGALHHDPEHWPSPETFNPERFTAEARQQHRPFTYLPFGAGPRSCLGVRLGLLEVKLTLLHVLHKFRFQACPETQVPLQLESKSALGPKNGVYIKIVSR

[1] = biological target: Sodium-dependent dopamine transporter (Homo sapiens, UniProt Q01959); test: DRUGMATRIX: Dopamine Transporter radioligand binding (ligand: [125I] RTI-55); type: cell membranes, CHO-K1, Membrane; settings: cho-k1; Not Active = under 50% inhibition at 10 µM
Sequence of Sodium-dependent dopamine transporter (Q01959 whole entry): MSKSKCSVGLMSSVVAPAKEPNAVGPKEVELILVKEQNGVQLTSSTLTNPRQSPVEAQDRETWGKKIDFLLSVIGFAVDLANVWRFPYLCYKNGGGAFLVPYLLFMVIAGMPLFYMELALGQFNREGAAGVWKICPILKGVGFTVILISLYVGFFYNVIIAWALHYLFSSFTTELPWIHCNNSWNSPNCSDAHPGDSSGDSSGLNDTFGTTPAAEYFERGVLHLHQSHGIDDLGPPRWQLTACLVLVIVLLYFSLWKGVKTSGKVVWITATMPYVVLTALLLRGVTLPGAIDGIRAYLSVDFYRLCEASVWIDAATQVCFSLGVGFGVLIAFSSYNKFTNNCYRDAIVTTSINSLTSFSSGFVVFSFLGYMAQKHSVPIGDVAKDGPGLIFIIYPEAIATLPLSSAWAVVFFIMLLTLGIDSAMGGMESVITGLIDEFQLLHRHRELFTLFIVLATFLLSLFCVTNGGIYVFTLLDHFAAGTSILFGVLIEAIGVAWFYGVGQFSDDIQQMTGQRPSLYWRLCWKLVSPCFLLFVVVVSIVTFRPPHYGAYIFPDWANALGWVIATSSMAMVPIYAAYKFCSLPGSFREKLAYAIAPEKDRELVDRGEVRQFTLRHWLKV

Melanocortin receptor 4 = Melanocortin receptor 4 (Homo sapiens, UniProt P32245); type: cell membranes, HEK293, Membrane; settings: hek293; note: in other assays of this panel Not Active means under 50% inhibition at 10 µM
Sequence of Melanocortin receptor 4 (P32245 whole entry): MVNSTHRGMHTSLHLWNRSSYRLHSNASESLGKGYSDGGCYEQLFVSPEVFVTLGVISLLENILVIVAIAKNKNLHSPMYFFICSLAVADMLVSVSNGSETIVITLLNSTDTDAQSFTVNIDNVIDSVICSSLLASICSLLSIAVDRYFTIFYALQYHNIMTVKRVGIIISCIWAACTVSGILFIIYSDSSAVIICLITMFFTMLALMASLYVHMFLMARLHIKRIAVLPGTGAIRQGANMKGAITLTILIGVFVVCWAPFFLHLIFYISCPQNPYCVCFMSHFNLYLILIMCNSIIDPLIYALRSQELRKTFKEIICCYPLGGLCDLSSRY

[2] = biological target: T2, Nitric oxide synthase, inducible (Mus musculus, UniProt P29477); parameters: species or system Escherichia coli;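 note: inhibition of iNOS enzyme activity measured with L-arginine as substrate; in other assays of this panel Not Active means under 50% inhibition at 10 µM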
T2 sequence (P29477 whole entry): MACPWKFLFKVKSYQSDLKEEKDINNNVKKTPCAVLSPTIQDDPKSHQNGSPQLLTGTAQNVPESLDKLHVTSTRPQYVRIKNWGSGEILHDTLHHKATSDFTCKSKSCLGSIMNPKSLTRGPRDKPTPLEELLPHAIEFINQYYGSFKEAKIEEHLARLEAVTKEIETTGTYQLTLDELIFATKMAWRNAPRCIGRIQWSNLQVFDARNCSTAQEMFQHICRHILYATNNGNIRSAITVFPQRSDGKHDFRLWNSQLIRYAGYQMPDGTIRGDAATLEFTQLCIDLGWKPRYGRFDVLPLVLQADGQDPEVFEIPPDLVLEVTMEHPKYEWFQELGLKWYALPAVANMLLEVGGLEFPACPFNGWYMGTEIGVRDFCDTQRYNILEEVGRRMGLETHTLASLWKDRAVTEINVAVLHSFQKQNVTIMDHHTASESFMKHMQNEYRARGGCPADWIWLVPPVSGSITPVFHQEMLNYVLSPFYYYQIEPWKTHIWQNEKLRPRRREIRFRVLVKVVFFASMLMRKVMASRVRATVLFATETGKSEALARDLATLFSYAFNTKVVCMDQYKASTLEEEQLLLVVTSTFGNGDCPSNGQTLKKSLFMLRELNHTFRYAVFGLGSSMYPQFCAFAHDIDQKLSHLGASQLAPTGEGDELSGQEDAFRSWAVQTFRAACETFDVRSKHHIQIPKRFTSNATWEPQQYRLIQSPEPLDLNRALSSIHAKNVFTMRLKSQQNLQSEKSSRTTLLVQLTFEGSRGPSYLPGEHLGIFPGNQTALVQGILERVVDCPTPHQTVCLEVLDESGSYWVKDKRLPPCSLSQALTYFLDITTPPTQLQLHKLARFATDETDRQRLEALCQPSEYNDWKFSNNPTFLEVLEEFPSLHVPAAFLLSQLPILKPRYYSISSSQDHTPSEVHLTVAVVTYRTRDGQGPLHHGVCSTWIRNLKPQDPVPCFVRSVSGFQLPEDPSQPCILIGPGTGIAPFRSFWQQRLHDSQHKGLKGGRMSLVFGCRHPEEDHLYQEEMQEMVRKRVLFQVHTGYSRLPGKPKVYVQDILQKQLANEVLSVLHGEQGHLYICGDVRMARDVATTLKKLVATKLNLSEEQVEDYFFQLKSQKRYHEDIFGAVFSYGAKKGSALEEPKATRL

[3] = biological target: Epidermal growth factor receptor (Homo sapiens, UniProt P00533); test: DRUGMATRIX: Protein Tyrosine Kinase, EGF Receptor enzyme inhibition (substrate: Poly(Glu:Tyr)); type: cell-based, Insect cells; settings: Not Active = under 50% inhibition at 10 µM; for IC50 / Ki: insect cells
Cytochrome P450 2D6 = Cytochrome P450 2D6 (Homo sapiens, UniProt P10635); settings: bti-tn-5b1-4; note: in other assays of this panel Not Active means under 50% inhibition at 10 µM
Sequence of Cytochrome P450 2D6 (P10635 whole entry): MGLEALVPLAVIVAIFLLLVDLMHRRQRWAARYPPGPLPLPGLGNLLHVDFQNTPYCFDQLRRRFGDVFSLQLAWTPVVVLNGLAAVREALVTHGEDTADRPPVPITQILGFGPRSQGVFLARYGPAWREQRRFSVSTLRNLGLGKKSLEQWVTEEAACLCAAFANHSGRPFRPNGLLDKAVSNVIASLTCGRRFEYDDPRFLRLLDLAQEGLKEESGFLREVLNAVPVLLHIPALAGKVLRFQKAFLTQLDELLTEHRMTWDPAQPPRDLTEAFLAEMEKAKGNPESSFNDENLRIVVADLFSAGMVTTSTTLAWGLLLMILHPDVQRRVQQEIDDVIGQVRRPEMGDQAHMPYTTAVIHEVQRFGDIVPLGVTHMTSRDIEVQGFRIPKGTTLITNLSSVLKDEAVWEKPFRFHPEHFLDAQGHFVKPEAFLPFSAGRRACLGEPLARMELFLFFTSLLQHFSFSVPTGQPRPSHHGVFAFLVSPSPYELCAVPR

## CC[C@@H](C(=O)[C@@H](C)[C@@H](O)[C@H](C)[C@@H]1O[C@@H]([C@@H](CC)C(=O)O)CC[C@@H]1C)[C@H]1O[C@]2(C=C[C@@H](O)[C@]3(CC[C@@](C)([C@H]4CC[C@](O)(CC)[C@H](C)O4)O3)O2)[C@H](C)C[C@@H]1C [SALINOMYCIN]
Thromboxane-A synthase
  IC50: Not Active
[1]
  IC50: Not Active
Melanocortin receptor 4
  IC50: Not Active
[2]
  IC50: Not Active
[3]
  IC50: Not Active
Cytochrome P450 2D6
  IC50: Not Active
  Ki: Not Active

## O=C(Oc1ccccc1C(=O)O)c1ccccc1O [SALSALATE]
Thromboxane-A synthase
  IC50: Not Active
[1]
  IC50: Not Active
Melanocortin receptor 4
  IC50: Not Active
[2]
  IC50: Not Active
[3]
  IC50: Not Active
Cytochrome P450 2D6
  IC50: Not Active
  Ki: Not Active

## O=C(O)c1cn(-c2ccc(F)cc2)c2cc(N3CCNCC3)c(F)cc2c1=O [SARAFLOXACIN]
Thromboxane-A synthase
  IC50: Not Active
[1]
  IC50: Not Active
Melanocortin receptor 4
  IC50: Not Active
[2]
  IC50: Not Active
[3]
  IC50: Not Active
Cytochrome P450 2D6
  IC50: Not Active
  Ki: Not Active

## CC(C)NCC(O)c1ccc(NS(C)(=O)=O)cc1 (configuration not stated) [SOTALOL]
Thromboxane-A synthase
  IC50: Not Active
[1]
  IC50: Not Active
Melanocortin receptor 4
  IC50: Not Active
[2]
  IC50: Not Active
[3]
  IC50: Not Active
Cytochrome P450 2D6
  IC50: Not Active
  Ki: Not Active

## O.O.O.O.O.O.[Cl-].[Cl-].[Sr+2] [STRONTIUM CHLORIDE HEXAHYDRATE]
Thromboxane-A synthase
  IC50: Not Active
[1]
  IC50: Not Active
Melanocortin receptor 4
  IC50: Not Active
[2]
  IC50: Not Active
[3]
  IC50: Not Active
Cytochrome P450 2D6
  IC50: Not Active
  Ki: Not Active

## O=C1C(CC[S+]([O-])c2ccccc2)C(=O)N(c2ccccc2)N1c1ccccc1 (configuration not stated) [SULFINPYRAZONE]
Thromboxane-A synthase
  IC50: Not Active
[1]
  IC50: Not Active
Melanocortin receptor 4
  IC50: Not Active
[2]
  IC50: Not Active
[3]
  IC50: Not Active
Cytochrome P450 2D6
  IC50: Not Active
  Ki: Not Active

## NC(=O)N1C(=O)/C(=C(\O)c2cccs2)c2cc(Cl)ccc21 [TENIDAP]
Thromboxane-A synthase
  IC50: Not Active
[1]
  IC50: Not Active
Melanocortin receptor 4
  IC50: Not Active
[2]
  IC50: Not Active
[3]
  IC50: Not Active
Cytochrome P450 2D6
  IC50: Not Active
  Ki: Not Active

## COc1cc2nc(N3CCN(C(=O)C4CCCO4)CC3)nc(N)c2cc1OC (configuration not stated) [TERAZOSIN]
Thromboxane-A synthase
  IC50: Not Active
[1]
  IC50: Not Active
Melanocortin receptor 4
  IC50: Not Active
[2]
  IC50: Not Active
[3]
  IC50: Not Active
Cytochrome P450 2D6
  IC50: Not Active
  Ki: Not Active

## Cn1c(=O)c2nc[nH]c2n(C)c1=O.O [THEOPHYLLINE]
Thromboxane-A synthase
  IC50: Not Active
[1]
  IC50: Not Active
Melanocortin receptor 4
  IC50: Not Active
[2]
  IC50: Not Active
[3]
  IC50: Not Active
Cytochrome P450 2D6
  IC50: Not Active
  Ki: Not Active

## CS(=O)(=O)c1ccc([C@@H](O)[C@@H](CO)NC(=O)C(Cl)Cl)cc1 [THIAMPHENICOL]
Thromboxane-A synthase
  IC50: Not Active
[1]
  IC50: Not Active
Melanocortin receptor 4
  IC50: Not Active
[2]
  IC50: Not Active
[3]
  IC50: Not Active
Cytochrome P450 2D6
  IC50: Not Active
  Ki: Not Active

## CCN(CC)CCNC(=O)c1cc(S(C)(=O)=O)ccc1OC [TIAPRIDE]
Thromboxane-A synthase
  IC50: Not Active
[1]
  IC50: Not Active
Melanocortin receptor 4
  IC50: Not Active
[2]
  IC50: Not Active
[3]
  IC50: Not Active
Cytochrome P450 2D6
  IC50: Not Active
  Ki: Not Active

## NC1CCN(c2nc3c(cc2F)c(=O)c(C(=O)O)cn3-c2ccc(F)cc2F)C1 (configuration not stated) [TOSUFLOXACIN]
Thromboxane-A synthase
  IC50: Not Active
[1]
  IC50: Not Active
Melanocortin receptor 4
  IC50: Not Active
[2]
  IC50: Not Active
[3]
  IC50: Not Active
Cytochrome P450 2D6
  IC50: Not Active
  Ki: Not Active

## O=C(Nc1ccc(Br)cc1)c1cc(Br)cc(Br)c1O [TRIBROMSALAN]
Thromboxane-A synthase
  IC50: Not Active
[1]
  IC50: Not Active
Melanocortin receptor 4
  IC50: Not Active
[2]
  IC50: Not Active
[3]; read-out: IC50
  pIC50: 5.52
Cytochrome P450 2D6
  IC50: Not Active
  Ki: Not Active

## CC(c1cc2ccccc2s1)N(O)C(N)=O (configuration not stated) [ZILEUTON]
Thromboxane-A synthase
  IC50: Not Active
[1]
  IC50: Not Active
Melanocortin receptor 4
  IC50: Not Active
[2]
  IC50: Not Active
[3]
  IC50: Not Active
Cytochrome P450 2D6
  IC50: Not Active
  Ki: Not Active

## MANGANESE CHLORIDE ANHYDROUS
Thromboxane-A synthase
  IC50: Not Active
  Ki: Not Active
[1]
  IC50: Not Active
  Ki: Not Active
Melanocortin receptor 4
  IC50: Not Active
  Ki: Not Active
[2]
  IC50: Not Active
  Ki: Not Active
[3]
  IC50: Not Active
  Ki: Not Active
Cytochrome P450 2D6
  IC50: Not Active
  Ki: Not Active

## SODIUM ORTHOVANAD
Thromboxane-A synthase
  IC50: Not Active
  Ki: Not Active
[1]
  IC50: Not Active
  Ki: Not Active
Melanocortin receptor 4
  IC50: Not Active
  Ki: Not Active
[2]
  IC50: Not Active
  Ki: Not Active
[3]
  IC50: Not Active
  Ki: Not Active
Cytochrome P450 2D6
  IC50: Not Active
  Ki: Not Active
